System: MV-4-11 cells
Assay: Gene expression microarray analysis (Affymetrix PrimeView) and GSEA
Type: cell-based, human
Design: RFU PODN (11730768_x_at) / Fold change /veh PODN (11730768_x_at) / RFU LINC00158 (11744669_a_at) / Fold change /veh LINC00158 (11744669_a_at) / RFU DUSP10 (11751237_a_at) / Fold change /veh DUSP10 (11751237_a_at) / RFU ID3 (11757404_x_at) / Fold change /veh ID3 (11757404_x_at) / RFU PLEKHG5 (11737974_s_at) / Fold change /veh PLEKHG5 (11737974_s_at) / RFU LRRC4B (11730491_at) / Fold change /veh LRRC4B (11730491_at) / RFU GIMAP4 (11747438_a_at) / Fold change /veh GIMAP4 (11747438_a_at) / RFU KRT8 (11758183_x_at) / Fold change /veh KRT8 (11758183_x_at) / RFU CNN1 (11734310_a_at) / Fold change /veh CNN1 (11734310_a_at) / RFU VPS37D (11726825_at) / Fold change /veh VPS37D (11726825_at) / RFU C10orf10 (11716522_x_at) / Fold change /veh C10orf10 (11716522_x_at) / RFU KIR2DL2 /// KIR2DL4 /// KIR2DL5A /// KIR2DL5B /// KIR2DS1 /// KIR2DS2 /// KIR2DS3 /// KIR2DS4 /// KIR3DL3 /// KIR3DL3 /// KIR3DS1 (11738374_at) / Fold change /veh KIR2DL2 /// KIR2DL4 /// KIR2DL5A /// KIR2DL5B /// KIR2DS1 /// KIR2DS2 /// KIR2DS3 /// KIR2DS4 /// KIR3DL3 /// KIR3DL3 /// KIR3DS1 (11738374_at) / RFU C1QL1 (11718748_at) / Fold change /veh C1QL1 (11718748_at) / RFU TMPRSS4 (11747572_a_at) / Fold change /veh TMPRSS4 (11747572_a_at) / RFU HAMP (11756126_x_at) / Fold change /veh HAMP (11756126_x_at) / RFU RNFT2 (11725882_a_at) / Fold change /veh RNFT2 (11725882_a_at) / RFU NR4A2 (11747474_a_at) / Fold change /veh NR4A2 (11747474_a_at) / RFU ABCC12 (11746883_a_at) / Fold change /veh ABCC12 (11746883_a_at) / RFU TMEM136 (11760407_x_at) / Fold change /veh TMEM136 (11760407_x_at) / RFU CLDN22 /// WWC2 (11732394_at) / Fold change /veh CLDN22 /// WWC2 (11732394_at) / RFU HLA-DPB1 (11760878_x_at) / Fold change /veh HLA-DPB1 (11760878_x_at) / RFU SPINT1 (11716480_a_at) / Fold change /veh SPINT1 (11716480_a_at) / RFU GAP43 (11754022_s_at) / Fold change /veh GAP43 (11754022_s_at) / RFU A4GNT (11735810_at) / Fold change /veh A4GNT (11735810_at) / RFU PRB3 (11715151_x_at) / Fold change /veh PRB3 (11715151_x_at) / RFU TUBB4B (11761932_at) / Fold change /veh TUBB4B (11761932_at) / RFU CAPN14 (11732068_a_at) / Fold change /veh CAPN14 (11732068_a_at) / RFU TMCC2 (11721928_a_at) / Fold change /veh TMCC2 (11721928_a_at) / RFU IRGQ (11745062_a_at) / Fold change /veh IRGQ (11745062_a_at) / RFU FAM174B (11720279_a_at) / Fold change /veh FAM174B (11720279_a_at) / RFU TMPRSS4 (11748680_a_at) / Fold change /veh TMPRSS4 (11748680_a_at) / RFU FAM212B (11763350_a_at) / Fold change /veh FAM212B (11763350_a_at) / RFU PLEKHG5 (11743358_a_at) / Fold change /veh PLEKHG5 (11743358_a_at) / RFU ZSCAN30 (11745921_a_at) / Fold change /veh ZSCAN30 (11745921_a_at) / RFU CMKLR1 (11741424_a_at) / Fold change /veh CMKLR1 (11741424_a_at) / RFU LOC101060620 /// MAPK8IP1 (11723275_at) / Fold change /veh LOC101060620 /// MAPK8IP1 (11723275_at) / RFU SPTSSB (11747773_x_at) / Fold change /veh SPTSSB (11747773_x_at) / RFU PRSS12 (11739890_at) / Fold change /veh PRSS12 (11739890_at) / RFU BIN1 (11741810_x_at) / Fold change /veh BIN1 (11741810_x_at) / RFU WNT11 (11732464_a_at) / Fold change /veh WNT11 (11732464_a_at) / RFU C10orf10 (11716521_a_at) / Fold change /veh C10orf10 (11716521_a_at) / RFU C5orf56 (11738089_at) / Fold change /veh C5orf56 (11738089_at) / RFU CYB561 (11721691_x_at) / Fold change /veh CYB561 (11721691_x_at) / RFU ANKRD19P (11752326_a_at) / Fold change /veh ANKRD19P (11752326_a_at) / RFU OR2T12 /// OR2T33 /// OR2T8 (11738714_s_at) / Fold change /veh OR2T12 /// OR2T33 /// OR2T8 (11738714_s_at) / RFU VCAN (11748164_a_at) / Fold change /veh VCAN (11748164_a_at) / RFU JSRP1 (11732532_at) / Fold change /veh JSRP1 (11732532_at) / RFU KRTAP10-11 (11738290_x_at) / Fold change /veh KRTAP10-11 (11738290_x_at) / RFU MYO3A (11730013_a_at) / Fold change /veh MYO3A (11730013_a_at) / RFU EBF3 (11725865_a_at) / Fold change /veh EBF3 (11725865_a_at) / RFU CAMK2N1 (11719241_x_at) / Fold change /veh CAMK2N1 (11719241_x_at) / RFU C5orf56 (11738088_a_at) / Fold change /veh C5orf56 (11738088_a_at) / RFU OLFML3 (11715873_a_at) / Fold change /veh OLFML3 (11715873_a_at) / RFU LOC100653217 /// NTM (11731650_a_at) / Fold change /veh LOC100653217 /// NTM (11731650_a_at) / RFU MAPK11 (11762145_a_at) / Fold change /veh MAPK11 (11762145_a_at) / RFU FIZ1 (11724087_x_at) / Fold change /veh FIZ1 (11724087_x_at) / RFU OASL (11726364_x_at) / Fold change /veh OASL (11726364_x_at) / RFU SOX15 (11748057_x_at) / Fold change /veh SOX15 (11748057_x_at) / RFU CD79A (11719716_a_at) / Fold change /veh CD79A (11719716_a_at) / RFU HIST1H1D (11736915_at) / Fold change /veh HIST1H1D (11736915_at) / RFU CASKIN2 (11723855_a_at) / Fold change /veh CASKIN2 (11723855_a_at) / RFU LOC730098 (11760151_x_at) / Fold change /veh LOC730098 (11760151_x_at) / RFU OR4N2 (11742367_at) / Fold change /veh OR4N2 (11742367_at) / RFU PRRT2 (11749266_a_at) / Fold change /veh PRRT2 (11749266_a_at) / RFU SNX32 (11753110_a_at) / Fold change /veh SNX32 (11753110_a_at) / RFU CDHR5 (11726645_a_at) / Fold change /veh CDHR5 (11726645_a_at) / RFU RCAN1 (11760418_a_at) / Fold change /veh RCAN1 (11760418_a_at) / RFU FAM167A (11723789_a_at) / Fold change /veh FAM167A (11723789_a_at) / RFU FAM26E (11764081_at) / Fold change /veh FAM26E (11764081_at) / RFU ISYNA1 (11749810_s_at) / Fold change /veh ISYNA1 (11749810_s_at) / RFU ACY1 (11761880_at) / Fold change /veh ACY1 (11761880_at) / RFU 11764098_at / Fold change /veh 11764098_at / RFU SAMD14 (11745864_x_at) / Fold change /veh SAMD14 (11745864_x_at) / RFU NPB (11741838_a_at) / Fold change /veh NPB (11741838_a_at) / RFU TMPRSS6 (11731388_a_at) / Fold change /veh TMPRSS6 (11731388_a_at) / RFU KRTAP10-2 (11738614_at) / Fold change /veh KRTAP10-2 (11738614_at) / RFU ARHGAP8 /// PRR5-ARHGAP8 (11727945_x_at) / Fold change /veh ARHGAP8 /// PRR5-ARHGAP8 (11727945_x_at) / RFU KRTAP5-7 /// NADSYN1 (11734609_at) / Fold change /veh KRTAP5-7 /// NADSYN1 (11734609_at) / RFU RASL12 (11751679_a_at) / Fold change /veh RASL12 (11751679_a_at) / RFU CDKN2B (11736163_a_at) / Fold change /veh CDKN2B (11736163_a_at) / RFU PRF1 (11729649_at) / Fold change /veh PRF1 (11729649_at) / RFU, ZNF638 /// ZNF638-IT1 / Fold change vs veh, ZNF638 /// ZNF638-IT1 / RFU, PANK3 / Fold change vs veh, PANK3 / RFU, SH3YL1 / Fold change vs veh, SH3YL1 / RFU, ZEB2 / Fold change vs veh, ZEB2 / RFU, NRIP1 / Fold change vs veh, NRIP1 / RFU, PTTG1IP / Fold change vs veh, PTTG1IP / RFU, CAPN2 / Fold change vs veh, CAPN2 / RFU, MED14 / Fold change vs veh, MED14 / RFU, SNORA58 / Fold change vs veh, SNORA58 / RFU, C1orf63 / Fold change vs veh, C1orf63 / RFU, LRRFIP1 / Fold change vs veh, LRRFIP1 / RFU, NDUFAF7 / Fold change vs veh, NDUFAF7 / RFU, SLC12A2 / Fold change vs veh, SLC12A2 / RFU, IBTK / Fold change vs veh, IBTK / RFU, ESF1 / Fold change vs veh, ESF1 / Fold change vs veh, TMEM50B / RFU, TAOK1 / Fold change vs veh, TAOK1 / RFU, ACBD3 / Fold change vs veh, ACBD3 / RFU, TMA16 / Fold change vs veh, TMA16 / RFU, RWDD3 / Fold change vs veh, RWDD3 / RFU, BCAT1 / Fold change vs veh, BCAT1 / RFU, EDEM3 / Fold change vs veh, EDEM3 / RFU, TMEM33 / Fold change vs veh, TMEM33 / RFU, WDR75 / Fold change vs veh, WDR75 / RFU, AHCTF1 / Fold change vs veh, AHCTF1 / RFU, TFRC / Fold change vs veh, TFRC / RFU, ZDHHC17 / Fold change vs veh, ZDHHC17 / RFU, NOM1 / Fold change vs veh, NOM1 / RFU, ARL8B / Fold change vs veh, ARL8B / RFU, ZBTB11 / Fold change vs veh, ZBTB11 / RFU, TAMM41 / Fold change vs veh, TAMM41 / RFU, KIAA1704 /// LOC100996395 / Fold change vs veh, KIAA1704 /// LOC100996395 / RFU, ING1 / Fold change vs veh, ING1 / RFU, TRMT61B / Fold change vs veh, TRMT61B / RFU, FUBP3 / Fold change vs veh, FUBP3 / RFU, TP53 / Fold change vs veh, TP53 / RFU, TNKS2 / Fold change vs veh, TNKS2 / RFU, ZFP14 / Fold change vs veh, ZFP14 / RFU, ACTR2 / Fold change vs veh, ACTR2 / RFU, PPP3R1 / Fold change vs veh, PPP3R1 / RFU, PIK3R1 / Fold change vs veh, PIK3R1 / RFU, HNRNPA1 / Fold change vs veh, HNRNPA1 / RFU, RNF170 / Fold change vs veh, RNF170 / RFU, ZNF28 / Fold change vs veh, ZNF28 / RFU, RNGTT / Fold change vs veh, RNGTT / RFU, OGT / Fold change vs veh, OGT / RFU, BRD1 / Fold change vs veh, BRD1 / RFU, MARS / Fold change vs veh, MARS / RFU, ZNF655 / Fold change vs veh, ZNF655 / RFU, FAHD1 / Fold change vs veh, FAHD1 / RFU, BDP1 / Fold change vs veh, BDP1 / RFU, LRRCC1 / Fold change vs veh, LRRCC1 / RFU, ARID1A / Fold change vs veh, ARID1A / RFU, ZNF146 / Fold change vs veh, ZNF146 / RFU, ZNF330 / Fold change vs veh, ZNF330 / RFU, GPN3 / Fold change vs veh, GPN3 / RFU, C9orf123 / Fold change vs veh, C9orf123 / RFU, N4BP2L2 / Fold change vs veh, N4BP2L2 / RFU, ARFIP1 / Fold change vs veh, ARFIP1 / RFU, FAM179B / Fold change vs veh, FAM179B / RFU, BCL10 / Fold change vs veh, BCL10 / RFU, UHRF1BP1L / Fold change vs veh, UHRF1BP1L / RFU, BET1 / Fold change vs veh, BET1 / RFU, CNOT2 / Fold change vs veh, CNOT2 / RFU, ZNF268 / Fold change vs veh, ZNF268 / Fold change vs veh, ZNF507 / RFU, DGCR2 / Fold change vs veh, DGCR2 / RFU, WDSUB1 / Fold change vs veh, WDSUB1 / Fold change vs veh, HSP90B1 /// MIR3652 / RFU, ADSS / Fold change vs veh, ADSS / RFU, GK / Fold change vs veh, GK / RFU, ZNF148 / Fold change vs veh, ZNF148 / RFU, TAF9 / Fold change vs veh, TAF9 / RFU, SLC1A5 / Fold change vs veh, SLC1A5 / RFU, SLMO2 / Fold change vs veh, SLMO2 / RFU, ABCC4 / Fold change vs veh, ABCC4 / RFU, LOC101060439 /// RAP1B / Fold change vs veh, LOC101060439 /// RAP1B / RFU, RFX7 / Fold change vs veh, RFX7 / RFU, GTPBP10 / Fold change vs veh, GTPBP10 / RFU, CNEP1R1 / Fold change vs veh, CNEP1R1 / RFU, BIVM-ERCC5 /// ERCC5 / Fold change vs veh, BIVM-ERCC5 /// ERCC5 / RFU, ILF3 / Fold change vs veh, ILF3 / RFU 11762660_at / Fold change /veh 11762660_at / RFU VCAN (11757783_s_at) / Fold change /veh VCAN (11757783_s_at) / RFU DDX43 (11728927_at) / Fold change /veh DDX43 (11728927_at) / RFU KRT8 (11758188_x_at) / Fold change /veh KRT8 (11758188_x_at) / RFU NKD1 (11759106_at) / Fold change /veh NKD1 (11759106_at) / RFU SRD5A1 (11742802_a_at) / Fold change /veh SRD5A1 (11742802_a_at) / RFU TPSAB1 /// TPSB2 (11721975_s_at) / Fold change /veh TPSAB1 /// TPSB2 (11721975_s_at) / RFU GSTM3 (11746129_a_at) / Fold change /veh GSTM3 (11746129_a_at) / RFU IL23R (11737362_x_at) / Fold change /veh IL23R (11737362_x_at) / RFU TMEM51 (11727254_a_at) / Fold change /veh TMEM51 (11727254_a_at) / RFU PIWIL2 (11732686_x_at) / Fold change /veh PIWIL2 (11732686_x_at) / RFU ORM1 (11744905_x_at) / Fold change /veh ORM1 (11744905_x_at) / RFU CCDC152 (11743942_at) / Fold change /veh CCDC152 (11743942_at) / RFU ECM1 (11717891_a_at) / Fold change /veh ECM1 (11717891_a_at) / RFU IL23R (11748794_a_at) / Fold change /veh IL23R (11748794_a_at) / RFU TNFAIP8L3 (11732012_x_at) / Fold change /veh TNFAIP8L3 (11732012_x_at) / RFU MBOAT4 (11741988_at) / Fold change /veh MBOAT4 (11741988_at) / RFU 11764193_at / Fold change /veh 11764193_at / RFU TMEM53 (11763286_at) / Fold change /veh TMEM53 (11763286_at) / RFU MAGEB2 (11727129_at) / Fold change /veh MAGEB2 (11727129_at) / RFU TMEM200A (11744735_a_at) / Fold change /veh TMEM200A (11744735_a_at) / RFU CCDC152 (11751479_a_at) / Fold change /veh CCDC152 (11751479_a_at) / RFU FAM211A (11726209_a_at) / Fold change /veh FAM211A (11726209_a_at) / RFU RGS16 (11746705_a_at) / Fold change /veh RGS16 (11746705_a_at) / RFU VCAN (11755009_s_at) / Fold change /veh VCAN (11755009_s_at) / RFU RHOB (11743442_s_at) / Fold change /veh RHOB (11743442_s_at) / RFU RGS16 (11720943_a_at) / Fold change /veh RGS16 (11720943_a_at) / RFU RGS16 (11720944_at) / Fold change /veh RGS16 (11720944_at) / RFU, VPS4B / Fold change vs veh, VPS4B / RFU, CREB1 / Fold change vs veh, CREB1 / RFU, DNAJC13 / Fold change vs veh, DNAJC13 / RFU, GNAQ / Fold change vs veh, GNAQ / RFU, CDK5R1 / Fold change vs veh, CDK5R1 / RFU, ZRANB3 / Fold change vs veh, ZRANB3 / RFU, CUL4A / Fold change vs veh, CUL4A / RFU, CCNY / Fold change vs veh, CCNY / RFU, UFL1 / Fold change vs veh, UFL1 / RFU, COG3 / Fold change vs veh, COG3 / RFU, DIAPH2 / Fold change vs veh, DIAPH2 / RFU, SKA2 / Fold change vs veh, SKA2 / RFU, AFF3 / Fold change vs veh, AFF3 / RFU, LMF1 / Fold change vs veh, LMF1 / RFU, IPO11 / Fold change vs veh, IPO11 / RFU, DFFB / Fold change vs veh, DFFB / RFU, FOXP1 / Fold change vs veh, FOXP1 / RFU, CARD8 / Fold change vs veh, CARD8 / RFU, STRN3 / Fold change vs veh, STRN3 / RFU, ADK / Fold change vs veh, ADK / RFU, RASSF2 / Fold change vs veh, RASSF2 / RFU, WIPF1 / Fold change vs veh, WIPF1 / RFU, LARP1B / Fold change vs veh, LARP1B / RFU, RASA1 / Fold change vs veh, RASA1 / RFU, RB1 / Fold change vs veh, RB1 / RFU, PPFIA1 / Fold change vs veh, PPFIA1 / RFU, MAT2A / Fold change vs veh, MAT2A / RFU, CCT5 / Fold change vs veh, CCT5 / RFU, WDR92 / Fold change vs veh, WDR92 / RFU, CUX1 / Fold change vs veh, CUX1 / RFU, TTC7A / Fold change vs veh, TTC7A / RFU, TMEM135 / Fold change vs veh, TMEM135 / RFU, DEPTOR / Fold change vs veh, DEPTOR / RFU, CPM / Fold change vs veh, CPM / RFU, DNAJB6 / Fold change vs veh, DNAJB6 / RFU, CACNA2D3 / Fold change vs veh, CACNA2D3 / RFU, DTX4 / Fold change vs veh, DTX4 / RFU, TFCP2 / Fold change vs veh, TFCP2 / RFU, GMCL1 /// GMCL1P1 / Fold change vs veh, GMCL1 /// GMCL1P1 / RFU, AEBP2 / Fold change vs veh, AEBP2 / RFU, SNHG1 /// SNORD22 /// SNORD25 /// SNORD26 /// SNORD27 /// SNORD28 /// SNORD29 /// SNORD31 / Fold change vs veh, SNHG1 /// SNORD22 /// SNORD25 /// SNORD26 /// SNORD27 /// SNORD28 /// SNORD29 /// SNORD31 / Fold change (Aza/veh), C12orf56 (ProbeSet 11735607_a_at) / Fold change (ACY-1035/veh), C12orf56 (ProbeSet 11735607_a_at) / Fold change (Aza/veh), FGFR1OP (ProbeSet 11751329_s_at) / Fold change (ACY-1035/veh), FGFR1OP (ProbeSet 11751329_s_at) / Fold change (Aza/veh), VPS36 (ProbeSet 11739960_a_at) / Fold change (ACY-1035/veh), VPS36 (ProbeSet 11739960_a_at) / RFU SYPL1 (11715823_x_at) / Fold change /veh SYPL1 (11715823_x_at) / RFU IGFBP7 (11715501_s_at) / Fold change /veh IGFBP7 (11715501_s_at) / RFU REEP3 (11722064_at) / Fold change /veh REEP3 (11722064_at) / RFU IGLL1 (11728026_x_at) / Fold change /veh IGLL1 (11728026_x_at): dose or concentration left out as unconfirmed
Details: MV-4-11 cells, 48 hours

## Nc1ccc(-c2cccs2)cc1NC(=O)c1ccc2c(c1)cc(C1CC1)n2CCN1CCOCC1 [ACY-1035]
  RFU SRD5A1 (11742802_a_at): 49.09 RFU

— publication PMC5218480 (PLoS ONE, 2017)
